The results in this text go back to patent publication US20230398130A1, “METHODS AND COMPOSITIONS FOR DIFFERENTIATING STEM CELLS” (Massachusetts Institute of Technology, priority 2020, published 2023).

The subject of assay [1] is Paneth cells. The experiment in a line: Flow cytometry of 3D-cultured intestinal organoids (ENR+CD, 6 days): Paneth cell fraction (lysozyme-positive, CD24-mid). In kind it is cell-based, murine. To be noted: ENR+CD 6 days; for Paneth cell proportion in organoids: 2 ng/mL Leptomycin B. The procedure:
Flow cytometry analysis (3D culture). ISC-enriched organoids cultured in 3D Matrigel with ENRCV media were passaged to 24-well plate in 3D Matrigel with ENRCV. At day zero, media were replaced to ENRCD with or without indicated compounds, and media were replaced every other day. […] Flow cytometry was performed using an LSR Fortessa (BD; Koch Institute Flow Cytometry Core at MIT). The data were analyzed using FlowJo v10 software.
Single live cells were selected by several gating strategies and Paneth cells were identified as lysozyme-high, CD24-mid, side scatter-high (SSC-high) (FIG. 27E). […] To evaluate whether the culture media supplements C and D may alter the effects of the 6 hits, Applicants also performed lysozyme assay in the canonical ENR culture condition in 3-D (because Paneth cells exist in an immature state within ENR, Applicants were unable to robustly quantify Paneth cell number via flow cytometry).
(§1) Flow cytometry. ISC-enriched organoids in 3D Matrigel culture were passaged to a 48-well plate and induced differentiation for 6 days by ENR+CD media containing DMSO or each drug indicated in the figures. DMSO- or drug-containing media were changed every other day. […] After vigorous pipetting and incubation at 37° C. for 15 min, the cell solution was diluted twice with basal media and centrifuged at 300 rcf for 3 min. […] The cell solution was centrifuged again at 300 rcf for 3 min at 4° C. to pellet the cells. […] Cells were centrifuged again for 3 min at 300 rcf and blocked with staining buffer (FACS buffer containing 0.5% Tween20 (Sigma, P2287)) for 15 min at RT in the dark. […] Flow cytometry was performed using an LSR Fortessa (BD; Koch Institute Flow Cytometry Core at MIT). Flow cytometry data were analyzed using FlowJo X v10.6.1 software.
Live Paneth cells were identified as LYZ-high, CD24-mid, side scatter-high (SSC-high) (FIG. 50F).
as §1, with “organoids in 3-D Matrigel culture” for “organoids in 3D Matrigel culture”, “to a 24- or 48-well plate” for “to a 48-well plate”
On the technique in general: In flow cytometry, cells or beads pass a laser one at a time.

In assay [2] the test system is Paneth cells. Kind of assay: Immunofluorescent imaging of organoids: LYZ+ cells per organoid area. In kind it is cell-based, murine. To be noted: 2 ng/mL Leptomycin B, ENR+CD 3 days. As to the method:
Immunofluorescent imaging. For immunofluorescence staining of organoids, intestinal organoids in Matrigel were fixed with 4% paraformaldehyde, then transferred to centrifuge tube. After washing with PBS, the isolated organoids were permeabilized with 1% Triton X followed by incubation with blocking buffer (1% BSA+3% Donkey Serum+0.2% Triton X in PBS) at RT. The organoids were then stained with primary antibodies and fluorescent dye-labeled secondary antibodies as well as with DAPI. Slides were covered with […]® Mounting Media (VECTOR). The following primary and secondary antibodies were used for the staining: rabbit anti-Lysozyme (1:1000, Thermo Fisher Scientific), rat anti-E-cadherin (1:1000, Thermo Fisher Scientific), Alexa Fluor 488 and 568 secondary antibodies (1:1000, Invitrogen). Images were acquired with a confocal laser scanning microscope (Nikon Eclipse 90i). For the analysis of Lysozyme+ cells per organoid area, the number of counted Lysozyme+ cells were normalized to measured organoid surface area. Image J was used for the data analysis.

Assay [3] has as its system lysozyme (LYZ). The experiment in a line: Western blotting of lysozyme in 3D-cultured intestinal organoids. In kind it is cell-based, murine. To be noted: organoids cultured 6 days in ENR+CV, ENR+CD or ENR. An excerpt: Western blotting. ISC-enriched organoids cultured in 3D Matrigel with ENRCV media were passaged to 24-well plate in 3D Matrigel with ENRCV. At day zero, media were replaced to ENR or ENRCD with or without indicated compounds, and media were replaced every other day. At day six, cells were harvested from Matrigel by mechanical disruption and suspended in basal media. Cell pellets were lysed with Pierce© IP lysis buffer (ThermoFisher, 87787) containing Halt™ Protease Inhibitor Cocktail, EDTA-Free (ThermoFisher, 87785) after 3-minute centrifuge at 300×g at 4° C. Cell extracts were resolved by NuPAGE© SDS-PAGE Gel system (ThermoFisher) and electroblotted onto polyvinylidene difluoride membranes using Criterion™ Blotter (Biorad). The membranes were blocked with 2% Blotting-Grade Blocker (Biorad, 1706404) in TBS-T (50 mM Tris-HCl, 150 mM NaCl, and 0.1% Tween 20, pH 8.0) and then probed with appropriate antibodies. Detection was performed using ECL Select™ Western Blotting Detection Reagent (Amersham, 45-000-999) and ImageQuant LAS4000 (GE Healthcare).
Western blotting. Organoid-containing gel was homogenized in basal medium and centrifuged at 300 rcf for 3 min. Organoid pellet was lysed with ice-cold Pierce IP Lysis Buffer (Thermo Fisher Scientific, #87787) containing Halt Protease Inhibitor Cocktail, EDTA-Free (Thermo Fisher Scientific, #87785) and incubated on ice for 20 min. The lysate was centrifuged at 17,000 rcf for 10 min, and the supernatant was combined with NuPAGE LDS Sample Buffer (Thermo Fisher Scientific, NP0007). Protein concentration was determined by Pierce 660 nm Protein Assay (Thermo Fisher Scientific, #22660) and normalized to the lowest concentration among each sample set. […] Chemiluminescent signals were detected by LAS4000 (GE Healthcare) using Amersham ECL Select Western Blotting Detection Reagent (GE Healthcare, #45-000-999), and total protein signals were obtained by Odyssey Imaging System (LI-COR Biosciences) using REVERT Total Protein Stain Kit (LI-COR Biosciences, #926-11010).

Assay [4] deals with ISC-enriched organoids. Kind of assay: Primary screen, 384-well 2.5-D organoid differentiation (ENR+CD, 6 days, Target Selective Inhibitor Library, vs whole-plate median): ATP (CellTiter-Glo 3D, CTG). To be noted: standard z score of FC.
Assay [5] relates to ISC-enriched organoids. Kind of assay: Secondary (validation) screen, 384-well 2.5-D, ENR+CD 6 days, n=8 wells, vs ENR+CD+DMSO control: carbachol-induced lysozyme secretion (LYZ.S). In kind it is cell-based, murine.
In assay [6] the test system is ISC-enriched organoids. Kind of assay: Secondary (validation) screen, 384-well 2.5-D, ENR+CD 6 days, n=8 wells, vs ENR+CD+DMSO control: basal lysozyme secretion (LYZ.NS). Type of assay: cell-based, murine.
The test system of assay [7] is ISC-enriched organoids. The experiment in a line: Secondary (validation) screen, 384-well 2.5-D, ENR+CD 6 days, n=8 wells, vs ENR+CD+DMSO control: ATP (CTG). In kind it is cell-based, murine.
Assay [8] relates to ISC-enriched organoid cultures. In kind it is cell-based. As to the method:
Using the ISC-enriched organoid cultures, Applicants sought to assess the role of vitamin D's multiple metabolites on ISC proliferation and differentiation in vitro. Treatment of ISC-enriched organoid cultures with multiple vitamin D metabolites at 50 nM drives a reduction in cell number after 4 days of exposure (FIG. 45A). This reduction is attributed to reduced ISC self-renewal and differentiation to terminal epithelial cell types. To confirm increased differentiation of ISC-enriched organoids, mRNA markers of epithelial cells were assessed via quantitative PCR (FIG. 45B). […] By enhancing ISC differentiation, Applicants hypothesized that it may be possible to enhance barrier repair or integrity in IBD. Such effect could act synergistically with other known effects of vitamin D, and provide enhanced therapeutic benefit.
After observing that calcitriol, the primary active vitamin D metabolite, drove the most profound differentiation effect on in vitro ISC cultures, Applicants sought to investigate whether or not this effect is dose-dependent. Again, Applicants used the ISC-enriched organoid culture, and exposed varying concentrations of calcitriol for 4-day treatment periods.
Given that WNT signaling is central to ISC self-renewal and maintenance, Applicants investigated the role of calcitriol on ISC proliferation and WNT signal activity.

The mark [9] stands for this setting: calcitriol 1 nM to 100 nM, 4-day treatment.

“Also recorded” adds a separate entry of the source. Read-outs that look alike come from different tables or passages of the source.

On to `CCC(=C/[C@H](C)C/C=C/C(C)=C/[C@@H](C)C(=O)[C@@H](C)[C@H](O)[C@@H](C)C/C(C)=C/C(=O)O)/C=C/[C@@H]1OC(=O)C=C[C@@H]1C` [Leptomycin B], for which the “Paneth cell proportion in organoids” value in assay [1] is given as “statistically significant increases in Paneth cell representation”; in assay [1] (listed as leptomycin B), “increased the proportion of PC; also recorded: increasing the proportion of Paneth cells”. Besides, the “proportion of Paneth cells (IF imaging)” value in assay [2] is on record as “increasing the proportion of Paneth cells”. Further, in assay [3], the “LYZ abundance per unit protein (Western blotting)” value is “appreciably increase LYZ abundance”.

For the compound `Cc1cn(-c2cc(NC(=O)c3ccc(C)c(Nc4nccc(-c5cccnc5)n4)c3)cc(C(F)(F)F)c2)cn1` [Nilotinib (AMN-107), Nilotinib], the Z.CTG was 0.769 in assay [4] (Dose 0.08 uM); 0.831 in assay [4] (Dose 0.40 uM); 0.577 in assay [4] (Dose 2.00 uM); −0.029 in assay [4] (Dose 10.00 uM); 0.830 in assay [7] (Dose 0.10 uM); 1.098 in assay [7] (Dose 0.20 uM). The Z.CTG was 2.104 in assay [7] (Dose 0.80 uM) and 1.275 in assay [7] (dose 0.40 uM). Moreover, the Z.LYZ.S was 0.339 in assay [5] (Dose 0.10 uM), 0.897 in assay [5] (Dose 0.20 uM), 1.099 in assay [5] (Dose 0.80 uM) and −0.053 in assay [5] (dose 0.40 uM). Further, the repSSMD.LYZ.S in assay [5] (Dose 0.10 uM) is on record as 0.652; in assay [5] (Dose 0.20 uM), 1.324; in assay [5] (Dose 0.80 uM), 0.953; in assay [5] (dose 0.40 uM), −0.055. The Z.LYZ.NS in assay [6] (Dose 0.10 uM) came out at 0.734; in assay [6] (Dose 0.20 uM) it was 1.283; in assay [6] (Dose 0.80 uM), 1.317; in assay [6] (dose 0.40 uM), 0.805. The repSSMD.LYZ.NS in assay [6] (Dose 0.10 uM) came to 1.309; in assay [6] (Dose 0.20 uM) it was 1.683; in assay [6] (Dose 0.80 uM), 1.063; in assay [6] (dose 0.40 uM), 1.064. The “mature Paneth cell population within organoids” value in assay [1] (hit compound at most potent dose from 2.5-D screening, 3-D culture, vs control) is recorded as “significantly decreased Paneth abundance”. Besides, the total cell number entry in assay [1] (hit compound at most potent dose, 3-D culture) was “significantly increasing total cell number”. For the same compound, the repSSMD.CTG amounted to 0.571 in assay [7] (Dose 0.10 uM), 0.777 in assay [7] (Dose 0.20 uM), 1.535 in assay [7] (Dose 0.80 uM) and 0.902 in assay [7] (dose 0.40 uM).

Regarding `C=C1/C(=C\C=C2/CCC[C@]3(C)[C@@H]([C@H](C)CCCC(C)(C)O)CC[C@@H]23)C[C@@H](O)C[C@@H]1O` [calcitriol, 1α,25-dihydroxyvitamin D3], the “ISC differentiation (mRNA markers of epithelial cells)” value in assay [8] (50 nM, 4 days, vs control culture) is recorded as “having the most profound effect”. In assay [8] (setting [9]), the cell number entry was “a decrease in cell number” and the “markers of intestinal epithelial cells (mRNA), ISC differentiation” value was “an increase in markers of intestinal epithelial cells in a dose-dependent manner”. The “markers of intestinal epithelial cells (mRNA), ISC differentiation” value in assay [8] (calcitriol 1 nM to 100 nM, 4-day treatment, listed as Calcitriol) is listed as “dose-dependent differentiation effect, primarily to goblet cells”. For the same compound, in assay [8] (calcitriol, 4 days), the cell cycle markers result is “a weak connection to cell cycle inhibition”. In addition, in assay [8] (calcitriol, 4 days, all doses), the “proliferation (Ki67)” value was “minimal change in proliferation at all doses”. Further, in assay [8] (increasing calcitriol dosage, 4 days), the LGR5 expression entry was “a clear reduction in LGR5”.
